Measurements: patent publication US8242174B2 (priority 2007, dated 2012)
Where a name gives a salt, the structure may show the parent alone.

Target: Lethal factor protease (Bacillus anthracis, UniProt P15917)
Assay: biochemical

Sequence of Lethal factor protease (P15917 34-809 limits assumed): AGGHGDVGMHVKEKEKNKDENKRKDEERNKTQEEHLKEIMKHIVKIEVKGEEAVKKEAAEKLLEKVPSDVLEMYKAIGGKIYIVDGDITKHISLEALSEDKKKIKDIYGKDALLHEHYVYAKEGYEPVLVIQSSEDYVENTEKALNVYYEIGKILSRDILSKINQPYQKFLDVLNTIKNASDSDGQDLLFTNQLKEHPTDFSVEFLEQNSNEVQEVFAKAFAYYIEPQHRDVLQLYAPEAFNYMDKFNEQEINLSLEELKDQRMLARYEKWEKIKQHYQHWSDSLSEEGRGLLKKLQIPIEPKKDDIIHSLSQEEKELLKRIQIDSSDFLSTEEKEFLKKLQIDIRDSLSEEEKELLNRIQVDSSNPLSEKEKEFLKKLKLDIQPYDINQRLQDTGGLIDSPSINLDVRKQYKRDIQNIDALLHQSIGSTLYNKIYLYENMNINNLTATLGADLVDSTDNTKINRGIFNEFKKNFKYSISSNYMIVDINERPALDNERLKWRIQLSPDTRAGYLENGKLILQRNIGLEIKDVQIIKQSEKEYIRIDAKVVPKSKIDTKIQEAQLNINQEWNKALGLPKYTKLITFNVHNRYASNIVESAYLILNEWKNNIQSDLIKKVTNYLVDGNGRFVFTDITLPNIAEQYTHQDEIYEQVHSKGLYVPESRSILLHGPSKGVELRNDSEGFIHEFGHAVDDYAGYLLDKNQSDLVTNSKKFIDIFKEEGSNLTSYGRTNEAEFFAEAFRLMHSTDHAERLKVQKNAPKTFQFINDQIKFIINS

Row | Structure (SMILES) | Ki [nM]
1 | CCCCC(Nc1cccc(C#N)c1)C(=O)NO (stereo not drawn) [Compound 167719, 2-(3-Cyano-phenylamino)-hexanoic acid hydroxyamide] | 49000
2 | Cc1cc(NC(C)C(=O)NO)cc(C)c1F (stereo not drawn) [Compound 167486, 2-(4-Fluoro-3,5-dimethyl-phenylamino)-N-hydroxy-propionamide] | 690
3 | Cc1cc(N[C@H](CCCCN)C(=O)NO)ccc1F [Compound 167949, (R)-6-Amino-2-(4-fluoro-3-methyl-phenylamino)-hexanoic acid hydroxyamide] | 200
4 | CCCCC(Nc1cccc(F)c1)C(=O)NO (stereo not drawn) [Compound 167277, 2-(3-Fluoro-phenylamino)-hexanoic acid hydroxyamide] | 134000
5 | Cc1cc(N[C@H](Cc2ccccc2)C(=O)NO)cc(C)c1F [Compound 167378, (R)-2-(4-Fluoro-3,5-dimethyl-phenylamino)-N-hydroxy-3-phenyl-propionamide] | 7000
6 | CCCCC(Nc1cccc(Cl)c1)C(=O)NO (stereo not drawn) [Compound 167257, 2-(3-Chloro-phenylamino)-hexanoic acid hydroxyamide] | 61500
7 | CCCCC(Nc1ccc(C)c(F)c1C)C(=O)NO (stereo not drawn) [Compound 167455, 2-(3-Fluoro-2,4-dimethyl-phenylamino)-hexanoic acid hydroxyamide] | 88100
8 | CCCC[C@@H](Nc1cc(C)c(F)c(C)c1)C(=O)NO [Compound 167294, (R)-2-(4-Fluoro-3,5-dimethyl-phenylamino)-hexanoic acid hydroxyamide] | 520
9 | Cc1cc(NC(CCC(F)(F)F)C(=O)NO)cc(C)c1F (stereo not drawn) [Compound 167482, 5,5,5-Trifluoro-2-(4-fluoro-3,5-dimethyl-phenylamino)-pentanoic acid hydroxyamide] | 1100
10 | CCCCC(Nc1ccc(OC)c(C)c1)C(=O)NO (stereo not drawn) [Compound 167324, 2-(4-Methoxy-3-methyl-phenylamino)-hexanoic acid hydroxyamide] | 19300
11 | Cc1cc(N[C@@H](C(=O)NO)C(C)C)ccc1F [Compound 167267, (R)-2-(4-Fluoro-3-methyl-phenylamino)-N-hydroxy-3-methyl-butyramide hydrochloride] | 15700
12 | CCCCC(Nc1cccc(C)c1)C(=O)NO (stereo not drawn) [Compound 167170, 2-m-Tolylamino-hexanoic acid hydroxyamide] | 34100
13 | Cc1cc(N[C@@H](C(=O)NO)C2CCCCC2)cc(C)c1F [Compound 167424, (R)-2-Cyclohexyl-2-(4-fluoro-3,5-dimethyl-phenylamino)-N-hydroxy-acetamide] | 790
14 | Cc1cc(N[C@H](CCCCNC(=O)OCc2ccccc2)C(=O)NO)cc(C)c1F [Compound 167503, (R)-[5-(4-Fluoro-3,5-dimethyl-phenylamino)-5-hydroxycarbamoyl-pentyl]-carbamic acid benzyl ester] | 290
15 | Cc1cc(N[C@H](CCCCNC(=O)Cc2ccc(-n3c(C)ccc3C)cc2)C(=O)NO)cc(C)c1F [Compound 167592, (R)-6-{2-[4-(2,5-Dimethyl-pyrrol-1-yl)-phenyl]-acetylamino}-2-(4-fluoro-3,5-dimethyl-phenylamino)-hexanoic acid hydroxyamide] | 1440
16 | CNc1ccc(S(=O)(=O)NCCCC[C@@H](Nc2cc(C)c(F)c(C)c2)C(=O)NO)cc1 [Compound 167657, (R)-2-(4-Fluoro-3,5-dimethyl-phenylamino)-6-(4-methylamino-benzenesulfonylamino)-hexanoic acid hydroxyamide] | 410
17 | Cc1cc(CNCCCC[C@@H](Nc2ccc(F)c(C)c2)C(=O)NO)ccc1F [Compound 167946, (R)-6-(4-Fluoro-3-methyl-benzylamino)-2-(4-fluoro-3-methyl-phenylamino)-hexanoic acid hydroxyamide] | 60
18 | CCCCC(Nc1cc(C)cc(Cl)c1)C(=O)NO (stereo not drawn) [Compound 167645, 2-(3-Chloro-5-methyl-phenylamino)-hexanoic acid hydroxyamide] | 2200
19 | CCCCC(Nc1ccccc1OC)C(=O)NO (stereo not drawn) [Compound 167293, 2-(2-Methoxy-phenylamino)-hexanoic acid hydroxyamide] | > 300000
20 | Cc1cc(NC(=O)NCCCC[C@@H](Nc2cc(C)c(F)c(C)c2)C(=O)NO)ccc1F [Compound 167614, (R)-2-(4-Fluoro-3,5-dimethyl-phenylamino)-6-[3-(4-fluoro-3-methyl-phenyl)-ureido]-hexanoic acid hydroxyamide] | 280
21 | Cc1cc(N[C@H](CCCCNC(=O)CCCc2ccccc2)C(=O)NO)ccc1F [Compound 167994, (R)-2-(4-Fluoro-3-methyl-phenylamino)-6-(4-phenyl-butyrylamino)-hexanoic acid hydroxyamide] | 650
22 | Cc1cc(N[C@H](CCCCN(C)Cc2ccc(F)cc2)C(=O)NO)ccc1F [Compound 168147, (R)-6-[(4-Fluoro-benzyl)-methyl-amino]-2-(4-fluoro-3-methyl-phenylamino)-hexanoic acid hydroxyamide] | 190
23 | Cc1cc(N[C@H](CCCCNCc2ccc(Cl)cc2)C(=O)NO)ccc1F [Compound 168181, (R)-6-(4-Chloro-benzylamino)-2-(4-fluoro-3-methyl-phenylamino)-hexanoic acid hydroxyamide] | 190

Row | Structure (SMILES) | Ki [nM]
24 | Cc1cc(N[C@H](CCCCNC(=O)CCc2ccccc2)C(=O)NO)ccc1F [Compound 167993, (R)-2-(4-Fluoro-3-methyl-phenylamino)-6-(3-phenyl-propionylamino)-hexanoic acid hydroxyamide] | 880
25 | Cc1cc(N[C@H](CO)C(=O)NO)cc(C)c1F [Compound 167485, (R)-2-(4-Fluoro-3,5-dimethyl-phenylamino)-3,N-dihydroxy-propionamide] | 590
26 | Cc1cc(N[C@H](CCCCNS(=O)(=O)c2ccc(N)cc2)C(=O)NO)cc(C)c1F [Compound 167656, (R)-6-(4-Amino-benzenesulfonylamino)-2-(4-fluoro-3,5-dimethyl-phenylamino)-hexanoic acid hydroxyamide] | 610
27 | Cc1cc(N[C@H](CCCCNCc2ccccc2)C(=O)NO)ccc1F [Compound 167980, (R)-6-Benzylamino-2-(4-fluoro-3-methyl-phenylamino)-hexanoic acid hydroxyamide] | 150
28 | Cc1cc(N[C@H](CCCCNS(=O)(=O)c2cccc(N(C)C)c2)C(=O)NO)cc(C)c1F [Compound 167700, (R)-6-(3-Dimethylamino-benzenesulfonylamino)-2-(4-fluoro-3,5-dimethyl-phenylamino)-hexanoic acid hydroxyamide] | 880
29 | CCCCC(Nc1ccccc1C)C(=O)NO (stereo not drawn) [Compound 167292, 2-o-Tolylamino-hexanoic acid hydroxyamide] | 273000
30 | Cc1cc(N[C@H](CCCCNC(=O)Cc2ccccc2)C(=O)NO)cc(C)c1F [Compound 167588, (R)-2-(4-Fluoro-3,5-dimethyl-phenylamino)-6-phenylacetylamino-hexanoic acid hydroxyamide] | 1200
31 | CCCCC(Nc1cc(C)cc(C)c1)C(=O)NO (stereo not drawn) [Compound 167226, 2-(3,5-Dimethyl-phenylamino)-hexanoic acid hydroxyamide] | 7400
32 | Cc1cc(N[C@H](CCCCN(CC2CCCCC2)CC2CCCCC2)C(=O)NO)ccc1F [Compound 167991, (R)-6-(Bis-cyclohexylmethyl-amino)-2-(4-fluoro-3-methyl-phenylamino)-hexanoic acid hydroxyamide] | 16600
33 | CCCC[C@H](Nc1cc(C)c(F)c(C)c1)C(=O)NO [Compound 167295, (S)-2-(4-Fluoro-3,5-dimethyl-phenylamino)-hexanoic acid hydroxyamide] | 106000
34 | CCCCC(Nc1ccccc1F)C(=O)NO (stereo not drawn) [Compound 167291, 2-(2-Fluoro-phenylamino)-hexanoic acid hydroxyamide] | > 300000
35 | Cc1cc(N[C@H](C)C(=O)NO)ccc1F [Compound 167392, (R)-2-(4-Fluoro-3-methyl-phenylamino)-N-hydroxy-propionamide] | 960
36 | Cc1cc(N[C@H](CCCCNCc2ccc(Cl)s2)C(=O)NO)ccc1F [Compound 168008, (R)-6-[(5-Chloro-thiophen-2-ylmethyl)-amino]-2-(4-fluoro-3-methyl-phenylamino)-hexanoic acid hydroxyamide] | 60
37 | Cc1cc(N[C@H](CCCCNCc2ccc(F)cc2)C(=O)NO)ccc1F [Compound 167945, (R)-6-(4-Fluoro-benzylamino)-2-(4-fluoro-3-methyl-phenylamino)-hexanoic acid hydroxyamide] | 30
38 | Cc1cc(NC(Cc2ccc(OC(F)(F)F)cc2)C(=O)NO)ccc1F (stereo not drawn) [Compound 167233, 2-(4-Fluoro-3-methyl-phenylamino)-N-hydroxy-3-(4-trifluoromethoxy-phenyl)-propionamide] | 102000
39 | CCCCC(Nc1cc(C)c(F)c(C)c1)C(=O)NO (stereo not drawn) [Compound 167454, 2-(4-Fluoro-3,5-dimethyl-phenylamino)-hexanoic acid hydroxyamide] | 800
40 | Cc1cc(N[C@H](C(=O)NO)C(C)C)ccc1F [Compound 167268, (S)-2-(4-Fluoro-3-methyl-phenylamino)-N-hydroxy-3-methyl-butyramide hydrochloride] | > 300000
41 | Cc1cc(S(=O)(=O)NCCCC[C@@H](Nc2cc(C)c(F)c(C)c2)C(=O)NO)ccc1F [Compound 167590, (R)-2-(4-Fluoro-3,5-dimethyl-phenylamino)-6-(4-fluoro-3-methyl-benzenesulfonylamino)-hexanoic acid hydroxyamide] | 250
42 | CCCCC(Nc1ccc(OC)cc1)C(=O)NO (stereo not drawn) [Compound 167275, 2-(4-Methoxy-phenylamino)-hexanoic acid hydroxyamide] | 88100
43 | CCCCC(Nc1cc(Br)cc(Br)c1)C(=O)NO (stereo not drawn) [Compound 167843, 2-(3,5-Dibromo-phenylamino)-hexanoic acid hydroxyamide] | 52300
44 | Cc1cc(NC(C)C(=O)NO)ccc1F (stereo not drawn) [Compound 167235, 2-(4-Fluoro-3-methyl-phenylamino)-N-hydroxy-propionamide] | 1400
45 | Cc1cc(N[C@H](CCc2ccccc2)C(=O)NO)cc(C)c1F [Compound 167406, (R)-2-(4-Fluoro-3,5-dimethyl-phenylamino)-N-hydroxy-4-phenyl-butyramide] | 510
